Results: PMC10056986 (Pharmaceuticals, 2023)
Where “and” joins values, the source holds several entries; their conditions need not be identical. Equal values may be shown once. Read-outs that look alike come from different tables or passages of the source.

Key:
ABL1 = ABL1 (Homo sapiens, UniProt P00519); assay: biochemical
CK1 alpha = CK1 alpha (Homo sapiens, UniProt P48729); assay: biochemical
JNK1 = JNK1 (Homo sapiens, UniProt P45983); assay: biochemical
MAPKAPK2 = MAPKAPK2 (Homo sapiens, UniProt P49137); assay: biochemical
M2 = M2 (Homo sapiens, UniProt P08172); assay: cell-based
Beta1 [1] = biological target: T1, Beta1 (Homo sapiens, UniProt P08588); assay: cell-based
Eta [2] = biological target: T2, Eta (Homo sapiens, UniProt P25101); assay: cell-based
H2 = H2 (Homo sapiens, UniProt P25021); assay: cell-based
5HT1A [3] = biological target: T3, 5HT1A (Homo sapiens, UniProt P08908); assay: cell-based
5HT2A = 5HT2A (Homo sapiens, UniProt P28223); assay: cell-based
op-delta = op-delta (Homo sapiens, UniProt P41143); assay: cell-based
Alpha1a = Alpha1a (Homo sapiens, UniProt P35348); assay: cell-based
M1 = M1 (Homo sapiens, UniProt P11229); assay: cell-based
M3 = M3 (Homo sapiens, UniProt P20309); assay: cell-based
Beta1 [4] = biological target: T1, Beta1; assay: cell-based; remark: listed apart in the source
Beta2 = Beta2 (Homo sapiens, UniProt P07550); assay: cell-based
AD2 = format: cell-based, human
Eta [5] = biological target: T2, Eta; assay: cell-based; remark: listed apart in the source
5HT1A [6] = biological target: T3, 5HT1A; assay: cell-based; remark: listed apart in the source
CB1 = CB1 (Homo sapiens, UniProt P21554); assay: cell-based
[7] = tested on: Influenza virus A/WS/33 (H1N1); assay: microbe, parasite or virus in culture; format: cell-based; details: H1N1, MDCK, read-out: EC50 (mean ± SD)
[8] = tested on: Influenza virus A/WSN/33 (H1N1); assay: microbe, parasite or virus in culture; format: cell-based; details: MDCK, read-out: EC50 (mean ± SD)
[9] = tested on: A/Guangzhou/39715/2014 (H5N6); assay: microbe, parasite or virus in culture; format: cell-based, avian influenza virus; details: unidentified influenza virus, H5N6, MDCK, read-out: IC50 (mean ± SD)
[10] = tested on: Influenza virus A/California/07/2009 (H1N1)pdm09; assay: microbe, parasite or virus in culture; format: cell-based; details: H1N1, MDCK, read-out: EC50 (mean ± SD)
EV71 Shenzhen/120F1/09 = assay: microbe, parasite or virus in culture; format: cell-based, human enterovirus 71; details: Enterovirus A, EV71, RD, read-out: EC50 for Virus
HRV 1B = assay: microbe, parasite or virus in culture; format: cell-based; details: Human rhinovirus sp., H1-HeLa, read-out: EC50 for Virus
HCV replicon 1b = assay: microbe, parasite or virus in culture; format: cell-based; details: Hepatitis C virus, read-out: EC50 for Virus
[11] = tested on: influenza A virus WSN/33 (H1N1); parameters: species or system BALB/c mice; details: mouse, in vivo
A/PR/8/34 (H1N1) = tested on: A/PR/8/34 (H1N1); parameters: species or system BALB/c mice; details: mouse, in vivo
22 GPCR targets = format: cell-based, human; details: read-out: EC50 (agonistic activity)
in vitro [12] = details: dog, CC50 (mean ± SD)
in vitro [13] = details: rhesus monkey
in vitro [14] = assay: in vitro
[15] = tested on: H1N1 and H3N2 influenza A virus strains; assay: in vitro; details: dog
CAMK2 alpha = CAMK2 alpha (Homo sapiens, UniProt Q9UQM7); assay: biochemical
hERG potassium channel = hERG potassium channel (Homo sapiens, UniProt Q12809); assay: cell-based
PDK1 = PDK1 (Homo sapiens, UniProt O15530); assay: biochemical
SRC = SRC (Homo sapiens, UniProt P12931); assay: biochemical
TAOK2 = TAOK2 (Homo sapiens, UniProt Q9UL54); assay: biochemical
[16] = 10,000 nM, read-out: Inhibition at Maximum Concentration (%)

T2 sequence (P25101 21-427): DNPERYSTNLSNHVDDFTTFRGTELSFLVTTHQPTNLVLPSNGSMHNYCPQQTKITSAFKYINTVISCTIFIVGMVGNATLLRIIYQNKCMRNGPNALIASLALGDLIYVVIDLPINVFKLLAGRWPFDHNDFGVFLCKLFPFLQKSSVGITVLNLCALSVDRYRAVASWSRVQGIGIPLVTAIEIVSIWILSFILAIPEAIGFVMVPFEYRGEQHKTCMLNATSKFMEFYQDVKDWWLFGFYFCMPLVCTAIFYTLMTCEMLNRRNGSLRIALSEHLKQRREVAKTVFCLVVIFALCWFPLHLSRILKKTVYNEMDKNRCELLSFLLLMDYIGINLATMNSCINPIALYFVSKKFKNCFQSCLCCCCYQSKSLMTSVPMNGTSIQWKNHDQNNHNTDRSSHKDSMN
T3 sequence (P08908 whole entry): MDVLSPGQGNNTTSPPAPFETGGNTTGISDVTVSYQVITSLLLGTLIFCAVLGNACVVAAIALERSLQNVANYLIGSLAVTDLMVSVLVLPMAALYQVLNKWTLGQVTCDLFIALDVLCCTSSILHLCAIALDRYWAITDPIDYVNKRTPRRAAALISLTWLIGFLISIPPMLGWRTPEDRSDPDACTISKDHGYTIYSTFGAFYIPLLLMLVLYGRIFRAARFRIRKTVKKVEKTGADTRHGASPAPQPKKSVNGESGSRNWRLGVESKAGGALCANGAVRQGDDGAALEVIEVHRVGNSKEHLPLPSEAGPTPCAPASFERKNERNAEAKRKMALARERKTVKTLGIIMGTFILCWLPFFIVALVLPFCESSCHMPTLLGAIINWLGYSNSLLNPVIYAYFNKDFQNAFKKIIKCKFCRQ
T1 sequence (P08588 whole entry): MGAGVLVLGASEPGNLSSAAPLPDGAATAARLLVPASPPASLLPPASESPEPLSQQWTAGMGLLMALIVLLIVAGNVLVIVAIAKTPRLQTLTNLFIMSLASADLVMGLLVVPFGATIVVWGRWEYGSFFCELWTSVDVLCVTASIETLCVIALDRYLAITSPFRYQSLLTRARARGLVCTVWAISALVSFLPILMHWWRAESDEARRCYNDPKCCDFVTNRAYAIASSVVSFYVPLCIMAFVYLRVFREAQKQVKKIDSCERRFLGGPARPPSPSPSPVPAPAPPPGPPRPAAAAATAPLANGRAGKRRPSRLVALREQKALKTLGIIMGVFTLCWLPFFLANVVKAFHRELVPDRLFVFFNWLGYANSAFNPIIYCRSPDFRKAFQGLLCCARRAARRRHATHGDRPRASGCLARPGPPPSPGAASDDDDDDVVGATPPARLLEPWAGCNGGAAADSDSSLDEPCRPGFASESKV
H2, sequence (P25021 whole entry): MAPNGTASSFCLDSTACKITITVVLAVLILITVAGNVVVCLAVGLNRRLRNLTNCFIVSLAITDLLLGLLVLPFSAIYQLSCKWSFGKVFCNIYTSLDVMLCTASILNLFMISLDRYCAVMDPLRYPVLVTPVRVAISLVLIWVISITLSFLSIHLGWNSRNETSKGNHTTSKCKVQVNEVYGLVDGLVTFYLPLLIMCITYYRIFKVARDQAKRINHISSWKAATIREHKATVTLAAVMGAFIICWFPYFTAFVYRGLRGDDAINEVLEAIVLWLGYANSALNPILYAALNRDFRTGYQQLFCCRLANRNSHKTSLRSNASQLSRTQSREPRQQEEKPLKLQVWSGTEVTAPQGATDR
M2, sequence (P08172 whole entry): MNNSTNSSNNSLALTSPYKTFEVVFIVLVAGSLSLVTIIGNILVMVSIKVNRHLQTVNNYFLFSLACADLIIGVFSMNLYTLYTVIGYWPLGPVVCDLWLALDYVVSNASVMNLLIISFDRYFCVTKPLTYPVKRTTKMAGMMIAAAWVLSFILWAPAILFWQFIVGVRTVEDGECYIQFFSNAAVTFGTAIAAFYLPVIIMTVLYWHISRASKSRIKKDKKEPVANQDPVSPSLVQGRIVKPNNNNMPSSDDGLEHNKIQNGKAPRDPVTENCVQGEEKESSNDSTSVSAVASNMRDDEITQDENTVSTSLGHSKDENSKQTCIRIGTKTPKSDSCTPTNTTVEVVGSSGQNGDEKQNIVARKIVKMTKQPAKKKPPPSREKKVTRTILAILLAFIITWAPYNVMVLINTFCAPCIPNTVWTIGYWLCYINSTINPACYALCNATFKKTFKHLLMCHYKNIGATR
CB1, sequence (P21554 whole entry): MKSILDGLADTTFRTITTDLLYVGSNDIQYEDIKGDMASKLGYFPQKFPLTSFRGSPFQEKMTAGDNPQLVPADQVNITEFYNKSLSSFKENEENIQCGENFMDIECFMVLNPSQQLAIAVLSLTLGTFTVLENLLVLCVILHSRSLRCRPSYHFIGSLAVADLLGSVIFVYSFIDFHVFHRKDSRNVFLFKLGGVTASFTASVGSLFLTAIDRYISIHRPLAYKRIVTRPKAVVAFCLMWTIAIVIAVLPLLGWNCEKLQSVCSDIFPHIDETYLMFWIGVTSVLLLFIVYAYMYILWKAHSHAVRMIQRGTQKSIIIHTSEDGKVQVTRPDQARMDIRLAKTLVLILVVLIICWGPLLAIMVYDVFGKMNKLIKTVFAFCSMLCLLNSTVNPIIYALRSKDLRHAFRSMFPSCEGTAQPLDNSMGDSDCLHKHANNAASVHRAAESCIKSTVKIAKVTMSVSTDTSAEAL
M3, sequence (P20309 whole entry): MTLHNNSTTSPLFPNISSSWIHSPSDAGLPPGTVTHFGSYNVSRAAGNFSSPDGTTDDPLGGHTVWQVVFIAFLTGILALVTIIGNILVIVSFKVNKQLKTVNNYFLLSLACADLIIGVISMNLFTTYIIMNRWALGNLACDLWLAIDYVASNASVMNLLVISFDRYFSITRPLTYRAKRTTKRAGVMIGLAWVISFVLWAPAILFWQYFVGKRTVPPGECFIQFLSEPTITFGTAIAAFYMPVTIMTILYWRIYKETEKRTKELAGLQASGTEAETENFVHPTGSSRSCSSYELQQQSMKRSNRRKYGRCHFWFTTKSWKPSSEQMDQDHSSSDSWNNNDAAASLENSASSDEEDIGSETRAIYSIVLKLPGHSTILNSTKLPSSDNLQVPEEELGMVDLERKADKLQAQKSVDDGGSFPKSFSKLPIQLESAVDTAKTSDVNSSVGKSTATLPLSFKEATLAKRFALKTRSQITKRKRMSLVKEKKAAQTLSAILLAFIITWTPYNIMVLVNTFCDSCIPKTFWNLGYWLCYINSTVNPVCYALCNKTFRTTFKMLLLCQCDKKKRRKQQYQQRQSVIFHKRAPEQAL
Alpha1a, sequence (P35348 whole entry): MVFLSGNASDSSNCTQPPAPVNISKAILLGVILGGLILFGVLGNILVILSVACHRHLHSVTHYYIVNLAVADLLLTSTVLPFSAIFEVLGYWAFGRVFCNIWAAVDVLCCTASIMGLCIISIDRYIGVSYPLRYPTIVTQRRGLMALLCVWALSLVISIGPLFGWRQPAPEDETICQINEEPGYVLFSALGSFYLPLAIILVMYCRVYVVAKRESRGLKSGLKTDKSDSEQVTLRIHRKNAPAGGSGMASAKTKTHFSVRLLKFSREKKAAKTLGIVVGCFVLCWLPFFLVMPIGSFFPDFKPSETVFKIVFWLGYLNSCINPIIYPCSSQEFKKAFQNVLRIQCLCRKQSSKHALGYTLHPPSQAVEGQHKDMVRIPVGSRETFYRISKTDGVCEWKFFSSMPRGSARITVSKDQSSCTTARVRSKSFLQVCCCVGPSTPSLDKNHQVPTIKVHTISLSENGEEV
op-delta, sequence (P41143 whole entry): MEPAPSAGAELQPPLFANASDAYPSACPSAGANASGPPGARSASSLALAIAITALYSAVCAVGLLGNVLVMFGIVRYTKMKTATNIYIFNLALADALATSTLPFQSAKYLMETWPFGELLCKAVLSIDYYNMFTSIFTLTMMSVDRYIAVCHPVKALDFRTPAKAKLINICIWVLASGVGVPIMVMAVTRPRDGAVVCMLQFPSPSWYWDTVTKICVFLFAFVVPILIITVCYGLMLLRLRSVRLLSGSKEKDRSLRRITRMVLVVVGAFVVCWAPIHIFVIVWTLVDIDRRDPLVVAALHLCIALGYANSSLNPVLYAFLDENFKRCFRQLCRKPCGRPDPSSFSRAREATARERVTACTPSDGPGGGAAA
M1, sequence (P11229 whole entry): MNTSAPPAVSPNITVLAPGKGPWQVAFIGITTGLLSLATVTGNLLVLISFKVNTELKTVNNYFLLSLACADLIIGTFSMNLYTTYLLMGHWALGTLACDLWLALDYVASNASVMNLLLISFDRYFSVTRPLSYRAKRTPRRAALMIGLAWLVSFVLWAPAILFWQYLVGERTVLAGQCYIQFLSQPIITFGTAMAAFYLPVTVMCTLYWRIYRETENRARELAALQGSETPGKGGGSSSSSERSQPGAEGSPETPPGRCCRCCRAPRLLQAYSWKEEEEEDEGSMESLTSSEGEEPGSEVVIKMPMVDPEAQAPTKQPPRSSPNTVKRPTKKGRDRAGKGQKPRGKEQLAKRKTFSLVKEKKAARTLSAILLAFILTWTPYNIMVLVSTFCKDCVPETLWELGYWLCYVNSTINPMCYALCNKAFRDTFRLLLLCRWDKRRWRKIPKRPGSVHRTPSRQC
Beta2, sequence (P07550 whole entry): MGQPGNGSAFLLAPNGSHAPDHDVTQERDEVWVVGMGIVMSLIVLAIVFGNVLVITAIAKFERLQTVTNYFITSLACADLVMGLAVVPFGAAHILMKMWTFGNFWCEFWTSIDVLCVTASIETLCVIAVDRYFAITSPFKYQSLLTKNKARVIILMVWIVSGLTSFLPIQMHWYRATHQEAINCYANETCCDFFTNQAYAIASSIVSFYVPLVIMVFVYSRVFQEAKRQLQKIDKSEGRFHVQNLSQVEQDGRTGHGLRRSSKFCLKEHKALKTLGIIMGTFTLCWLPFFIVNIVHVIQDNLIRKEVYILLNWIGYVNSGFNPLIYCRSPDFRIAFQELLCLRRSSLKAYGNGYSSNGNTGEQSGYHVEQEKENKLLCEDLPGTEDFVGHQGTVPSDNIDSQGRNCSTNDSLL

SMILES: O=C(O)[C@H]1C2CCC(CC2)[C@@H]1Nc1nc(-c2n[nH]c3ncc(F)cc23)nc(C2CC2)c1F [ZSP1273]
- IC50 (ABL1): > 10 µM
- IC50 (CK1 alpha): > 10 µM
- IC50 (JNK1): > 10 µM
- IC50 (MAPKAPK2): > 10 µM
- EC50 (M2): > 12 µM
- Activity at Maximum Concentration (%) (M2; 12,000 nM): −3%
- EC50 (Beta1 [1]): > 12 µM
- Activity at Maximum Concentration (%) (Beta1 [1]; 12,000 nM): 0.54%
- EC50 (Eta [2]): > 12 µM
- Activity at Maximum Concentration (%) (Eta [2]; 12,000 nM): −1.16%
- EC50 (H2): > 12 µM
- Activity at Maximum Concentration (%) (H2; 12,000 nM): −3.46%
- EC50 (5HT1A [3]): > 12 µM
- Activity at Maximum Concentration (%) (5HT1A [3]; 12,000 nM): 16.98%
- EC50 (5HT2A): > 12 µM
- Activity at Maximum Concentration (%) (5HT2A; 12,000 nM): −21.27%
- IC50 (op-delta): > 10 µM
- inhibition at 10 µM (op-delta; [16]): 7.37%
- IC50 (Alpha1a): > 10 µM
- inhibition at 10 µM (Alpha1a; [16]): -56.5%
- IC50 (M1): > 10 µM
- inhibition at 10 µM (M1; [16]): -0.95%
- IC50 (M3): > 10 µM
- inhibition at 10 µM (M3; [16]): -4.78%
- IC50 (Beta1 [4]): > 10 µM
- inhibition at 10 µM (Beta1 [4]; [16]): -22.7%
- IC50 (Beta2): > 10 µM
- inhibition at 10 µM (Beta2; [16]): -33.2%
- IC50 (AD2): > 10 µM
- Inhibition at Maximum Concentration (%) (AD2; 10,000 nM): 43.84%
- IC50 (Eta [5]): > 10 µM
- inhibition at 10 µM (Eta [5]; [16]): 9.07%
- IC50 (5HT1A [6]): > 10 µM
- inhibition at 10 µM (5HT1A [6]; [16]): 19%
- IC50 (CB1): > 10 µM
- inhibition at 10 µM (CB1; [16]): -77.2%
- EC50 [7]: 0.032 ± 0.01 nM
- EC50 [8]: 0.063 ± 0.028 nM
- IC50 [9]: 0.000245 ± 3e-05 µM
- EC50 [10]: 0.02 ± 0.003 nM
- EC50 (EV71 Shenzhen/120F1/09): > 10 µM
- EC50 (HRV 1B): 7.88 µM
- EC50 (HCV replicon 1b): > 10 µM
- day on which mice began to regain body weight [11]: 4 days and 5 days
- decrease of viral load in lung tissues vs vehicle ([11]; 3 mg/kg): 2.37 log10
- decrease of viral load in lung tissues vs vehicle ([11]; 10 mg/kg): 3.1 log10 and 4.18 log10
- decrease of viral load in lung tissues vs vehicle ([11]; 30 mg/kg): 4.97 log10
- viral titer in lung tissues ([11]; 30 mg/kg): < 2.0 log10
- mortality (A/PR/8/34 (H1N1)): 40%
- EC50 (22 GPCR targets): > 12 µM
- CC50 (in vitro [12]): 1.63 ± 0.87 µM
- CC50 (in vitro [13]): > 10 µM
- CC50 (in vitro [14]): > 10 µM
- selectivity ratio [15]: > 25000
- IC50 (CAMK2 alpha): > 10 µM
- IC50 (hERG potassium channel): > 40 µM
- IC50 (PDK1): > 10 µM
- IC50 (SRC): > 10 µM
- IC50 (TAOK2): > 10 µM
